In article PMC7144373, “Composition and Orientation of the Core Region of Novel HIV-1 Entry Inhibitors Influences Metabolic Stability” (Molecules, 2020):

Legend:
[1] = Metabolic stability in human liver microsomes; details: for k (rate of metabolism): 1.0 µM compound, 0.5 mg/mL HLM, NADPH, 37 °C; for Eh (hepatic extraction ratio): (Clh/Q) × 100; for Clapp: extrapolated for a human with scaling factors; for Clh: extrapolated, Q = 20 mL/min/kg; for half-life at 1 µM / microsomal CLint at 1 µM: human, human liver microsomes, pH 7.4
Description: Metabolic stability analysis was performed as outlined in Lu et al..
Preparation of solutions. Test compound was weighed and dissolved in 100% DMSO to get 10 mM stock solution. The stock solution was diluted to 100 μM with mixture of acetonitrile and H2O (1:1). The final concentrations of DMSO and acetonitrile were equal to or less than 0.1%. […]
Microsomal incubation. Liver microsomes incubations were conducted in duplicate in 96-well plates. […] Reactions were terminated at various time points (0, 5, 10, 20, 40 min) by adding 150 µL of ice-cold methanol and acetonitrile (1:1, v/v) containing the internal standard.
LC-MS/MS analysis: A Waters liquid chromatographic system was used. […] The flow rate was maintained at 0.6 mL/min. Detection was performed on an API4000 Q-Trap mass spectrometer equipped with TurboIonSpray (ESI) Interface (Applied Biosystems, Concord, Ontario, Canada). Analyst 1.5 software packages (Applied Biosystems) were used to control the LC-MS/MS system, and for data acquisition and processing.
Data analysis: The peak area ratio of a test compound to internal standard was plotted as a percentage of the relevant zero time point control (%remaining) for each reaction. The rate of metabolism (k) is the slope of the linear regression from log percentage remaining versus incubation time.

[2] = Cellular toxicity (CCK-8 cell viability); details: human, U87.CD4.CCR5 cells
U87.CD4.CCR5 cells = assay: Cellular toxicity (CCK-8 cell viability)
CYP3A4 = tested on: CYP3A4; parameters: method as in doi:10.1093/ofid/ofz360.2178; details: cited from earlier work
[3] = tested on: HIV-1B41 Env pseudotyped HIV-1; assay: Single-round HIV-1 infection assay (luciferase reporter); details: for IC50: Human immunodeficiency virus 1, U87/CD4/CCR5, 48 h, read-out: IC50 against HIV-1B41 Env pseudotyped HIV-1; for IC50 against HIV-1B41 Env pseudotyped HIV-1: U87.CD4.CCR5 cells, single-round infection, 48 h
Description: HEK293T cells were plated in 6-well plates with density of 1 × 10^6 cells/well. After 24 h, the two vectors (vector 1 and vector 2) were co-transfected in a 3:4 ratio, respectively [16]. Vector 1 is an HIV-1 pNL4-3-Luc+R-E plasmid with two main features. The vector contains a premature stop codon in the Env gene and replaces HIV-1 Nef gene with the luciferase-reporter gene [19]. Vector 2 is a plasmid expressing the HIV-1B41 gp160 Env [20]. Transient transfections of these vectors were carried out via calcium phosphate (ProFection Mammalian Transfection System, Promega, Madison, WI) for 5 h in DMEM without supplements. After the 5 h incubation period, the medium was replaced with fresh culture media. Seventy-two hours post-transfection, virus was collected by filtering supernatants. The result was single-round infectious virus with pseudotyped envelopes that contained a luciferase reporter [16]. This was aliquoted and stored at −80 °C.
The single-round HIV-1 infection assay was performed as previously described [19, 21, 22]. U87.CD4.CCR5 cells were seeded in Greiner Bio-one 96-well luminometer-compatible tissue culture plates with a density of 1.2 × 10^4 cells/well. After 24 h, compounds underwent serial dilutions in DMEM. DMSO was used as a vehicle control (Sigma). These dilutions were mixed with thawed pseudotyped HIV-1 virus (normalized to p24 content) and added to the U87 cells 100 µL/well. The plates were incubated for 48 h at 37 °C. Post-incubation, the medium was aspirated from each well, and 50 μL/well of 1X luciferase lysis buffer (Promega) was added. The plates were placed at −80 °C for one freeze-thaw cycle. After thawing, 50 µL/well of the luciferase assay substrate (Promega) was added and the luciferase activity of each well was measured by a GloMax 96 microplate luminometer (Promega).

SMILES | k (rate of metabolism) [1] | Eh (hepatic extraction ratio) [1] [%] | Clapp [1] [mL/min/kg] | Clh [1] [mL/min/kg] | Metabolic stability compared with temsavir/BMS-626529 ([1]; human liver microsome half-lives) | half-life at 1 µM [1] [min] | microsomal CLint at 1 µM [1] [µL/min/mg] | CC50 at 48 h [2] [µM] | Toxicity in words (U87.CD4.CCR5 cells) | Primary metabolizing isoform as determined (CYP3A4) | IC50 [3] [nM] | IC50 against HIV-1B41 Env pseudotyped HIV-1 [3]
COc1cnc(-n2cnc(C)n2)c2[nH]cc(C(=O)C(=O)NC3C4CN(C(=O)c5ccccc5)CC43)c12 (centres unmarked) [SC28] | 0.00479 | 31.61 | 9.245 | 6.322 | more than twice the metabolic stability of temsavir/BMS-626529 | 145 | 9.6 | > 400 | very low toxicities |  |  | 
COc1cnc(-n2cnc(C)n2)c2[nH]cc(C(=O)C(=O)N3CCN(C(=O)c4ccccc4)CC3)c12 [BMS-626529, reference compound] |  |  |  |  |  |  |  |  |  | CYP3A4 | 0.05 ± 0.006 | 
COc1cnc(-n2cnc(C)n2)c2[nH]cc(C(=O)C(=O)N3CC4CN(C(=O)c5ccccc5)CC4C3)c12 (centres unmarked) [SC11] | 0.07253 | 87.49 | 139.887 | 17.498 |  | 9.6 | 145 |  |  |  | 2 ± 0.2 | 
COc1cnc(-n2cnc(C)n2)c2[nH]cc(C(=O)C(=O)N3CC(C)N(C(=O)c4ccccc4)C(C)C3)c12 (centres unmarked) [SC54, 1-(4-benzoyl-3,5-dimethylpiperazin-1-yl)-2-(4-methoxy-7-(3-methyl-1H-1,2,4-triazol-1-yl)-1H-pyrrolo[2,3-c]pyridin-3-yl)ethane-1,2-dione] | 0.02223 | 68.19 | 42.88 | 13.64 |  | 31.2 | 44.5 |  |  |  | 0.41 ± 0.061 | low nanomolar range
COc1cnc(-n2cnc(C)n2)c2[nH]cc(C(=O)C(=O)N3CC(CCC(=O)c4ccccc4)C3)c12 [SC15] | 0.05268 | 83.55 | 101.588 | 16.710 |  | 13.2 | 105 |  |  |  | 7 ± 0.1 | 
COc1cnc(-n2cnc(C)n2)c2[nH]cc(C(=O)C(=O)N3C[C@@H]4[C@H](C3)[C@H]4NC(=O)c3ccccc3)c12 [SC46] | 0.0076 | 42.28 | 14.657 | 8.455 |  | 91.2 | 15.2 | > 1000 | very low toxicities |  | 91.5 | low nanomolar range
C[C@]12CC[C@H]3[C@@H](CCC4=CC(=O)CC[C@@]43C)[C@@H]1CC[C@@H]2O [Testosterone, reference compound] | 0.05134 |  | 99.005 | 16.639 |  |  |  |  |  |  |  | 
COc1cnc(-n2cnc(C)n2)c2[nH]cc(C(=O)C(=O)N3Cc4cnn(-c5ccccc5)c4C3)c12 [SC12] | 0.1058 | 91.0753 | 204.1 | 18.22 |  | 6.55 | 212 |  |  |  | 6 ± 0.3 | 
